ChEMBL document CHEMBL3039007, “Structure-based identification of OATP1B1/3 inhibitors” (Mol Pharmacol, 2013)

What was measured:
[1] = target: T1, Solute carrier organic anion transporter family member 1B1 (Homo sapiens, UniProt Q9Y6L6); conditions: chinese hamster, cho, 10 µM
T1 sequence (Q9Y6L6 whole entry): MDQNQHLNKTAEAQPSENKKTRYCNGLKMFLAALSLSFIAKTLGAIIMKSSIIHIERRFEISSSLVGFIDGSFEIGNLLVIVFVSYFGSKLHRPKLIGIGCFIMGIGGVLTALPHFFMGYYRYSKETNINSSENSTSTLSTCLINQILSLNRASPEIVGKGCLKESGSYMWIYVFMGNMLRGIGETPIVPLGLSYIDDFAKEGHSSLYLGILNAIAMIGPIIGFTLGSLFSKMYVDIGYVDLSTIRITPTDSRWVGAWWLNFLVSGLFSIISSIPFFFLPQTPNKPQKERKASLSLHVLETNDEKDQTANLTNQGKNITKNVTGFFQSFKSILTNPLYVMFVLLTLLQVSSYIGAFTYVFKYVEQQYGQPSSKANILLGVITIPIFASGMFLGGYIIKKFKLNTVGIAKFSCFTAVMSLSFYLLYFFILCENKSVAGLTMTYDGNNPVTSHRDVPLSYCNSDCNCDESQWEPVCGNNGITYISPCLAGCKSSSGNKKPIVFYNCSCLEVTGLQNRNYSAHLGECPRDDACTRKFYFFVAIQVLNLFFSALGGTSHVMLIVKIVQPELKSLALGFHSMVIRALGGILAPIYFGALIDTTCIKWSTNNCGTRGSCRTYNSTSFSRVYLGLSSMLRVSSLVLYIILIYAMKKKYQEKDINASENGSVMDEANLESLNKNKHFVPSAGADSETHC

[2] = target: T2, Solute carrier organic anion transporter family member 1B3 (Homo sapiens, UniProt Q9NPD5); conditions: chinese hamster, cho, 10 µM
T2 sequence (Q9NPD5 whole entry): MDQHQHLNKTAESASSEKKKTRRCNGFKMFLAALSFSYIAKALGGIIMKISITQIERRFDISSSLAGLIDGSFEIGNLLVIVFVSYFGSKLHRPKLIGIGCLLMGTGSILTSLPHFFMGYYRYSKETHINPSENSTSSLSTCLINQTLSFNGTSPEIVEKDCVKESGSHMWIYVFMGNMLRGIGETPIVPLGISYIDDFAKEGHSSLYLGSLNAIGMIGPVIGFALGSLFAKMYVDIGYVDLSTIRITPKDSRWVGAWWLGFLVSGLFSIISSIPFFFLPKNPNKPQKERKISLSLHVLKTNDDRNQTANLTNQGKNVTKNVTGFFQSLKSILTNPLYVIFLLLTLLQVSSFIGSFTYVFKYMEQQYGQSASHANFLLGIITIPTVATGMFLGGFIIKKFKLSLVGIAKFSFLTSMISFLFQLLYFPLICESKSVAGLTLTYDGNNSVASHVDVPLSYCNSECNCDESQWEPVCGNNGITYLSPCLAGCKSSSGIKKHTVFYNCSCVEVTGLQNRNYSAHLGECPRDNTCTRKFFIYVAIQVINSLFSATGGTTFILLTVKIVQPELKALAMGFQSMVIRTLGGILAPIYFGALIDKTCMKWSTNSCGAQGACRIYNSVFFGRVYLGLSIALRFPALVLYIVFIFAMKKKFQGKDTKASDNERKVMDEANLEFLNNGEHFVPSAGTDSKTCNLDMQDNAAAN

| residual activity [1] [%] | residual activity [2] [%] | Structure (SMILES) |
| --- | --- | --- |
| 68.94 | 82.24 | NS(=O)(=O)c1cc2c(cc1Cl)NCNS2(=O)=O [HYDROCHLOROTHIAZIDE] |
| 97.08 | 103.3 | CC(=O)Oc1ccc(C(c2ccc(OC(C)=O)cc2)c2ccccn2)cc1 [BISACODYL] |
| 117 | 100.5 | CCOC(=O)C(=O)C1(C(=O)OCC)Oc2cc(OC)cc(OC)c2C(=O)C1c1ccccc1 (configuration not stated) [2-ETHOXYCARBONYL-2-ETHOXYOXALOYLOXYDIHYDROCHRYSIN DIMETHYL ETHER] |
| 67.16 | 87.82 | N[C@@H](CCC(=O)N[C@@H](CS)C(=O)NCC(=O)O)C(=O)O [GLUTATHIONE] |
| 95.25 | 87.19 | CC1=C(/C=C/C(C)=C/C=C/C(C)=C/C=C/C=C(C)/C=C/C=C(C)/C=C/C2=C(C)C(=O)[C@@H](O)CC2(C)C)C(C)(C)C[C@H](O)C1=O [ASTAXANTHIN] |
| 134 | 116.5 | CC(=O)O[C@]1(C)CC[C@@]23C[C@H]1C(C)(C)[C@@H]2CC[C@H]3C [CEDRYL ACETATE] |
| 126.2 | 72.91 | O=C(O)c1cc(/N=N/c2ccc(S(=O)(=O)Nc3ccccn3)cc2)ccc1O [SULFASALAZINE] |
| 68.52 | 87.59 | CN1C(C(=O)Nc2ccccn2)=C(O)c2ccccc2S1(=O)=O [PIROXICAM] |
| 99.72 | 104.3 | COc1cc(O)c2c(=O)c(-c3ccccc3)coc2c1 [5-HYDROXY-7-METHOXYISOFLAVONE] |
| 9.748 | 24.36 | CC(=O)O[C@]1(C(C)=O)CC[C@H]2[C@@H]3C=C(Cl)C4=CC(=O)CC[C@]4(C)[C@H]3CC[C@@]21C [CHLORMADINONE ACETATE] |
| 48.25 | 78.78 | CC1=CC(=O)[C@H]2C(C)(C)CCC[C@]2(C)[C@@]1(O)CCc1ccoc1 |
| 67.38 | 78.02 | CCCc1ncc(C[n+]2ccccc2C)c(N)n1 [AMPROLIUM ION] |
| 188.5 | 130.7 | O=C(OCC(O)CO)c1ccccc1Nc1ccnc2cc(Cl)ccc12 (configuration not stated) [GLAFENINE] |
| 99.1 | 96.54 | OC[C@H]1O[C@@](CO)(O[C@H]2O[C@H](CO)[C@@H](O)[C@H](O)[C@H]2O)[C@@H](O[C@H]2O[C@H](CO)[C@@H](O)[C@H](O)[C@H]2O)[C@@H]1O [MELEZITOSE] |
| 116 | 105.2 | COc1ccc(C(=O)CC(=O)O)c2c1C=CC(C)(C)O2 [URSINOIC ACID] |
| 133 | 107.5 | COc1c2c(cc3occ(-c4ccc5c(c4)OCO5)c(=O)c13)OC(C)(C)C=C2 [METHYL ROBUSTONE] |
| 115.7 | 102.1 | CC(=O)Oc1cccc(C(=O)O)c1OC(C)=O [DIPYROCETYL] |

| residual activity [1] [%] | residual activity [2] [%] | Structure (SMILES) |
| --- | --- | --- |
| 103.4 | 105.5 | Nc1nc2c(ncn2COCCO)c(=O)[nH]1 [ACYCLOVIR] |
| 43.45 | 134.9 | CN1CCCC(n2nc(Cc3ccc(Cl)cc3)c3ccccc3c2=O)CC1.Cl (configuration not stated) [AZELASTINE HYDROCHLORIDE] |
| 48.46 | 66.8 | O=C1c2c(O)cccc2C([C@@H]2O[C@H](CO)[C@@H](O)[C@H](O)[C@H]2O)c2cc(CO)cc(O)c21 (some centres not stated) [ALOIN] |
| 227.1 | 121.3 | COc1ccc2ccc(=O)oc2c1CC=C(C)C [OSTHOLE] |
| 81.68 | 104.4 | CCN(CC)CCNC(=O)c1ccc(N)cc1.Cl [PROCAINAMIDE HYDROCHLORIDE] |
| 128.8 | 95.91 | CN(C)[C@@H]1C(O)=C(C(N)=O)C(=O)[C@@]2(O)C(O)=C3C(=O)c4c(O)ccc(Cl)c4[C@@](C)(O)[C@H]3C[C@@H]12.Cl [CHLORTETRACYCLINE HYDROCHLORIDE] |
| 93.87 | 102.6 | Cc1nc2ccccn2c(=O)c1CCN1CCC(C(=O)c2ccc(F)cc2)CC1 [PIRENPERONE] |
| 93.56 | 106.8 | CNC1(C)C2CCC(C2)C1(C)C.Cl (configuration not stated) [MECAMYLAMINE HYDROCHLORIDE] |
| 74.37 | 74.86 | CC(C)C1COc2cc3oc(=O)ccc3cc2O1 (configuration not stated) [DIHYDRO-OBLIQUIN] |
| 101 | 98.2 | CC1(O)CC2C(CC1O)C2(C)C (configuration not stated) [3,4-DIHYDROXYCARANE] |
| 85.16 | 60.38 | CC(=O)N[C@@H](Cc1c[nH]c2ccccc12)C(N)=O [ACETYLTRYPTOPHANAMIDE] |
| 56.95 | 67.41 | COC(=O)C1=C(C)NC(C)=C(C(=O)OCCN(C)Cc2ccccc2)C1c1cccc([N+](=O)[O-])c1.Cl (configuration not stated) [NICARDIPINE HYDROCHLORIDE] |
| 57.75 | 84.99 | COc1ccc2c(c1)c(CC(=O)OCC(=O)O)c(C)n2C(=O)c1ccc(Cl)cc1 [ACEMETACIN] |
| 33.41 | 71.42 | O=C(O)Cc1cc(I)c(Oc2cc(I)c(O)c(I)c2)c(I)c1 [TETRAC] |
| 112 | 99.07 | CCCCOc1ccc(OCCCN2CCOCC2)cc1.Cl [PRAMOXINE HYDROCHLORIDE] |
| 215.8 | 114.1 | C=C[C@@H](C1=CC(=O)C(OC)=C(OC)C1=O)c1ccccc1 [3,4-DIMETHOXYDALBERGIONE] |

| Structure (SMILES) | residual activity [1] [%] | residual activity [2] [%] |
| --- | --- | --- |
| COc1cc2c3cc1Oc1cc(ccc1O)CC1c4c(cc(OC)c(O)c4Oc4ccc(cc4)CC3N(C)CC2)CCN1C (configuration not stated) [BEBEERINE] | 53.34 | 74.29 |
| CN1C[C@H](C(=O)N[C@]2(C)O[C@@]3(O)[C@@H]4CCCN4C(=O)[C@H](Cc4ccccc4)N3C2=O)C[C@@H]2c3cccc4[nH]cc(c34)C[C@H]21.CS(=O)(=O)O [DIHYDROERGOTAMINE MESYLATE] | 27.06 | 10.07 |
| CC(C)CCC[C@@H](C)[C@H]1CC[C@H]2[C@@H]3CC[C@H]4CCCC[C@]4(C)[C@H]3CC[C@]12C | 88.28 | 103.3 |
| C[C@@H]1C[C@H](O)[C@@]2(O)[C@]13CC(=O)OC[C@]2(C)[C@@](C)(O)C(=O)C3 | 95.73 | 109.4 |
| CCOP(=S)(OCC)SCCSCC [DISULFOTON] | 113.3 | 105.1 |
| O=c1[nH]cnc2nc[nH]c12 [HYPOXANTHINE] | 92.05 | 92.8 |
| C[C@@H]([C@H]1OC(C)(C)[C@@H](O)[C@H]1O)[C@@H]1CC[C@]2(C)C3=CC[C@H]4C(C)(C)C(=O)CC[C@]4(C)[C@H]3CC[C@@]12C | 77.68 | 98.76 |
| O=c1cccc2n1C[C@@H]1C[C@H]2CN2CCCC[C@H]12.[O-][Cl+3]([O-])([O-])O | 88.32 | 98.01 |
| NC(=O)c1ccc(N)nc1 [6-AMINONICOTINAMIDE] | 103.2 | 108.6 |
| COc1cc([C@@H]2c3cc4c(c(O)c3C[C@H]3COC(=O)[C@@H]32)OCO4)cc(OC)c1OC [BETA-PELTATIN A] | 78.87 | 101.7 |
| O=C1CCCN1CC#CCN1CCCC1 [OXOTREMORINE] | 95.24 | 82.72 |
| CO/N=C1\CN(c2nc3c(cc2F)c(=O)c(C(=O)O)cn3C2CC2)CC1CN.CS(=O)(=O)O (configuration not stated) [GEMIFLOXACIN MESYLATE] | 102.7 | 108.8 |
| [H]/N=C(/N)NS(=O)(=O)c1ccc(N)cc1 [SULFAGUANIDINE] | 119.2 | 108 |
